The target of test [1] is MAPK14 (human) (UniProt Q16539). Kind of test: Inhibition of MAPK14 Kinase Activity by PHAS-I Assay. To be noted: for inhibition: concentration not given here.
Test [2] has the same target. Briefly: Inhibition of LPS Stimulated TNF Production by U937 Cells. The conditions noted are these: for inhibition: concentration not given here.

SMILES strings stand for the structures.

MAPK14 (human), sequence (Q16539 whole entry, looked up): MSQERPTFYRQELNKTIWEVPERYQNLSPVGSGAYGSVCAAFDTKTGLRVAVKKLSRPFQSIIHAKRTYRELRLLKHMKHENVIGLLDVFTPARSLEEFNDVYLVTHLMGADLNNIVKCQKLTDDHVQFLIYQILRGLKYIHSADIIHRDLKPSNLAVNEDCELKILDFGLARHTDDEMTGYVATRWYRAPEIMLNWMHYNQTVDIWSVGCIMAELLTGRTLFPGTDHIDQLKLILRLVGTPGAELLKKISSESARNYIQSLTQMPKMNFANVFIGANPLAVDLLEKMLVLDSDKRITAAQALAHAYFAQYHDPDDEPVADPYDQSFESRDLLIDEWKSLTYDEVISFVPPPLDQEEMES

Regarding `CCCS(=O)(=O)NCCc1[nH]nc(-c2ccc(F)cc2)c1-c1ccncc1`, the inhibition in test [1] came out at 82%; in test [2] it was 35%.

Regarding `CCOC(=O)C(CCSC)NC(=O)NCc1[nH]nc(-c2ccc(F)cc2)c1-c1ccncc1` (configuration not stated), the inhibition was determined as 44% in test [1] and 22% in test [2].

`C[C@H](NS(=O)(=O)c1ccccc1C(=O)O)c1[nH]nc(-c2ccc(F)cc2)c1-c1ccncc1`: the IC50 in test [1] is 760 nM. In addition, in test [2], the inhibition was 70%.

As to `Cc1c(-c2ccncc2)c(-c2ccc(F)cc2)nn1CC(=O)Nc1ccc(S(=O)(=O)C(F)F)cc1`, the inhibition in test [1] was 90%; in test [2] it was 28%.

`COc1ccc(CC(=O)NCCc2[nH]nc(-c3ccc(F)cc3)c2-c2ccncc2)cc1OC`: the results for the inhibition in test [1] and in test [2] were 61% and 24%, respectively.

Consider `CCC(=O)C(=O)CCCCCNC(=O)NCCc1[nH]nc(-c2ccc(F)cc2)c1-c1ccncc1`, for which, in test [1], the inhibition stood at 69%. In test [2], the IC50 was more than 1000 nM.

On to `CC(C)S(=O)(=O)NCCc1[nH]nc(-c2ccc(F)cc2)c1-c1ccncc1`, for which the inhibition was 77% in test [1] and 34% in test [2].

For `CCOC(=O)NCCc1[nH]nc(-c2ccc(F)cc2)c1-c1ccncc1`, the inhibition was found to be 79% in test [1] and 55% in test [2].

For the compound `COC(=O)C(C)NC(=O)Cn1nc(-c2ccc(F)cc2)c(-c2ccncc2)c1C` (configuration not stated), the inhibition in test [1] was 44%; in test [2], 1%.

As for `O=S(=O)(/C=C/c1ccccc1)NCCCc1[nH]nc(-c2ccc(F)cc2)c1-c1ccncc1`, the inhibition in test [1] worked out at 69%; in test [2] it was 65%.

`C[C@@H](NC(=O)c1ccc(F)cc1)c1[nH]nc(-c2ccc(F)cc2)c1-c1ccncc1` yielded an IC50 in test [1] of 660 nM. In test [2], this compound showed an inhibition of 24%.

Turning to `CCOC(=O)C(CCSC)NC(=O)NCCc1[nH]nc(-c2ccc(F)cc2)c1-c1ccncc1` (configuration not stated), the inhibition stood at 69% in test [1] and 54% in test [2].

The compound `O=C(NCCCc1[nH]nc(-c2ccc(F)cc2)c1-c1ccncc1)NCCc1ccc(F)cc1` gave an IC50 in test [1] of 19 nM. In addition, the inhibition in test [2] came to 9%.

Take `O=C(NCCc1[nH]nc(-c2ccc(F)cc2)c1-c1ccncc1)[C@@H]1CCCN1`: the inhibition in test [1] turned out to be 89%. The same compound displayed an IC50 in test [2] of 760 nM.

`CC1(C)[C@H]2CC[C@@]1(CS(=O)(=O)NCCCc1[nH]nc(-c3ccc(F)cc3)c1-c1ccncc1)C(=O)C2` showed an IC50 in test [1] of less than 100 nM. Moreover, the inhibition in test [2] was found to be 38%.

For the compound `O=C(NCc1[nH]nc(-c2ccc(F)cc2)c1-c1ccncc1)N1CCCC1`, the IC50 was 550 nM in test [1] and more than 1000 nM in test [2].

With `COC(=O)C(=O)NCc1[nH]nc(-c2ccc(F)cc2)c1-c1ccncc1`, the inhibition is 89% in test [1] and 79% in test [2].

`Cc1c(-c2ccncc2)c(-c2ccc(F)cc2)nn1CC(=O)[C@H]1CCCN1C(=O)OCc1ccccc1`: the inhibition in test [1] turned out to be 79%; in test [2], 19%.

On to `CC(=O)O[C@@H](C)C(=O)NCCc1[nH]nc(-c2ccc(F)cc2)c1-c1ccncc1`, for which the inhibition in test [1] is 57%; in test [2] it was 73%.

With `O=C(NCCc1[nH]nc(-c2ccc(F)cc2)c1-c1ccncc1)Nc1cccc(Cl)c1Cl`, the inhibition was 68% in test [1] and 31% in test [2].

`CCN1CCC(N(CC)C(=O)Cn2nc(-c3ccc(F)cc3)c(-c3ccncc3)c2C)C1` (configuration not stated) gave an inhibition in test [1] of 32%. In test [2], the IC50 is more than 10000 nM.

Take `CNC(=O)CC[C@H](NC(=O)c1ccc(I)cc1)c1[nH]nc(-c2ccc(F)cc2)c1-c1ccncc1`: the IC50 in test [1] amounted to 3280 nM. The inhibition in test [2] amounted to 8%.

In the case of `Cc1c(-c2ccncc2)c(-c2ccc(F)cc2)nn1CC(=O)N(CC1CC1)C(C)Cc1ccc(Cl)cc1` (configuration not stated), the inhibition in test [1] was 83%; in test [2], 22%.

Turning to `O=C(Cc1cccs1)NCCc1[nH]nc(-c2ccc(F)cc2)c1-c1ccncc1`, the inhibition came out at 68% in test [1] and 41% in test [2].

Consider `Cc1c(-c2ccncc2)c(-c2ccc(F)cc2)nn1CC(=O)N(CC(C)C)CC(C)C`, for which the inhibition in test [1] turned out to be 55%. The compound further came in with an IC50 in test [2] of more than 10000 nM.

Take `CCOC(=O)[C@H](Cc1ccccc1)NC(=O)Cn1nc(-c2ccc(F)cc2)c(-c2ccncc2)c1C`: the results for the inhibition in test [1] and in test [2] were 77% and 1%, respectively.

`Cc1c(-c2ccncc2)c(-c2ccc(F)cc2)nn1CC(=O)N(C)CCCC1c2ccccc2CCc2ccccc21` came in with an inhibition in test [1] of 50%. The compound further yielded an IC50 in test [2] of more than 10000 nM.

On to `O=C(NCCc1[nH]nc(-c2ccc(F)cc2)c1-c1ccncc1)c1cccnc1`, for which the inhibition in test [1] turned out to be 58%; in test [2] it was 23%.

On to `Cc1c(-c2ccncc2)c(-c2ccc(F)cc2)nn1CC(=O)N[C@@H](C)C1CCCCC1`, for which the results for the inhibition in test [1] and in test [2] were 64% and 38%, respectively.

Turning to `CC(Oc1ccccc1)C(=O)NCCc1[nH]nc(-c2ccc(F)cc2)c1-c1ccncc1` (configuration not stated), the inhibition amounted to 80% in test [1] and 55% in test [2].

For `O=C(NCc1[nH]nc(-c2ccc(F)cc2)c1-c1ccncc1)[C@@H]1CCCN1C(=O)C(F)(F)F`, the inhibition was determined as 96% in test [1] and 52% in test [2].
